Experimental findings from US12522602B2, “Derivatives having 2,3-dihydro-1H-indene or 2,3-dihydrobenzofuran moiety or pharmaceutically acceptable salt thereof and pharmaceutical compositions comprising the same” (YUHAN CORPORATION, priority 2019, dated 2026) are described below.

One experiment deals with GM1 production in Jurkat cells. The experiment can be described thus: cells. Conditions: Homo sapiens, Jurkat, 72 h. It is filed as cell-based.
`CC1(C)Cc2cc(-c3ccc4c(c3)CCCO4)ccc2C1NC(=O)O[C@@H]1CN2CCC1CC2` (stereo partly drawn) [Example 130, (S)-quinuclidin-3-yl (5-(chroman-6-yl)-2,2-dimethyl-2,3-dihydro-1H-inden-1-yl)carbamate] gave a half-inhibitory concentration (IC50) of 10 nM.

Consider `CC1(C)Cc2cc(-c3ccc(C4CC4)cc3)ccc2C1NC(=O)O[C@@H]1CN2CCC1CC2` (stereo partly drawn) [Example 131, (S)-quinuclidin-3-yl (5-(4-cyclopropylphenyl)-2,2-dimethyl-2,3-dihydro-1H-inden-1-yl)carbamate], for which the IC50 was 10.6 nM.

`CN(C)c1ccc(-c2ccc3c(c2)CC(C)(C)C3NC(=O)O[C@@H]2CN3CCC2CC3)cc1` (stereo partly drawn) [Example 132, (S)-quinuclidin-3-yl (5-(4-(dimethylamino)phenyl)-2,2-dimethyl-2,3-dihydro-1H-inden-1-yl)carbamate] registered an IC50 of 29.2 nM.

The compound `CCOc1ccc(-c2ccc3c(c2)CC(C)(C)C3NC(=O)O[C@@H]2CN3CCC2CC3)cc1F` (stereo partly drawn) [Example 133, (S)-quinuclidin-3-yl (5-(4-ethoxy-3-fluorophenyl)-2,2-dimethyl-2,3-dihydro-1H-inden-1-yl)carbamate] showed a concentration for half-maximal inhibition (IC50) of 22.6 nM.

`COc1ccc(-c2ccc3c(c2)CC(C)(C)C3NC(=O)O[C@@H]2CN3CCC2CC3)cc1C(F)(F)F` (stereo partly drawn) [Example 134, (S)-quinuclidin-3-yl (5-(4-methoxy-3-(trifluoromethyl)phenyl)-2,2-dimethyl-2,3-dihydro-1H-inden-1-yl)carbamate] yielded a half-inhibitory concentration (IC50) of 43.2 nM.

The compound `CCCOc1ccc(-c2ccc3c(c2)CC(C)(C)C3NC(=O)O[C@@H]2CN3CCC2CC3)cc1` (stereo partly drawn) [Example 135, (S)-quinuclidin-3-yl (2,2-dimethyl-5-(4-propoxyphenyl)-2,3-dihydro-1H-inden-1-yl)carbamate] had an IC50 of 8.1 nM.

As to `CC(C)COc1ccc(-c2ccc3c(c2)CC(C)(C)C3NC(=O)O[C@@H]2CN3CCC2CC3)cc1` (stereo partly drawn) [Example 136, (S)-quinuclidin-3-yl (5-(4-isobutoxyphenyl)-2,2-dimethyl-2,3-dihydro-1H-inden-1-yl)carbamate], the IC50 is 1.7 nM.

As for `CC1(C)Cc2cc(-c3ccsc3)ccc2C1NC(=O)O[C@@H]1CN2CCC1CC2` (stereo partly drawn) [Example 137, (S)-quinuclidin-3-yl (2,2-dimethyl-5-(thiophen-3-yl)-2,3-dihydro-1H-inden-1-yl)carbamate], the midpoint of inhibition, the IC50, lay at 12.1 nM.

Take `Cc1cscc1-c1ccc2c(c1)CC(C)(C)C2NC(=O)O[C@@H]1CN2CCC1CC2` (stereo partly drawn) [Example 138, (S)-quinuclidin-3-yl (2,2-dimethyl-5-(4-methylthiophen-3-yl)-2,3-dihydro-1H-inden-1-yl)carbamate]: the IC50 was determined as 9.1 nM.

The compound `CN(C)CCOc1cccc(-c2ccc3c(c2)CC(C)(C)C3NC(=O)O[C@@H]2CN3CCC2CC3)c1` (stereo partly drawn) [Example 139, (S)-quinuclidin-3-yl (5-(3-(2-(dimethylamino)ethoxy)phenyl)-2,2-dimethyl-2,3-dihydro-1H-inden-1-yl)carbamate] yielded an IC50 of 74.4 nM.

Compound `CC1(C)Cc2cc(-c3cccc4ccncc34)ccc2C1NC(=O)O[C@@H]1CN2CCC1CC2` (stereo partly drawn) [Example 140, (S)-quinuclidin-3-yl (5-(isoquinolin-8-yl)-2,2-dimethyl-2,3-dihydro-1H-inden-1-yl)carbamate] gave an IC50 of 10.5 nM.

`CC1(C)Cc2cc(-c3cccc4cnccc34)ccc2C1NC(=O)O[C@@H]1CN2CCC1CC2` (stereo partly drawn) [Example 141, (S)-quinuclidin-3-yl (5-(isoquinolin-5-yl)-2,2-dimethyl-2,3-dihydro-1H-inden-1-yl)carbamate] returned an IC50 of 39.9 nM.

Take `CC1(C)Cc2cc(-c3cncc4ccccc34)ccc2C1NC(=O)O[C@@H]1CN2CCC1CC2` (stereo partly drawn) [Example 142, (S)-quinuclidin-3-yl (5-(isoquinolin-4-yl)-2,2-dimethyl-2,3-dihydro-1H-inden-1-yl)carbamate]: 20.5 nM corresponded to half-maximal inhibition (IC50).

Consider `CC(C)Oc1ccc(-c2ccc3c(c2)CC(C)(C)C3NC(=O)O[C@@H]2CN3CCC2CC3)cc1` (stereo partly drawn) [Example 144, (S)-quinuclidin-3-yl (5-(4-isopropoxyphenyl)-2,2-dimethyl-2,3-dihydro-1H-inden-1-yl)carbamate], for which the IC50 was found to be 6.2 nM.

Regarding `CC(C)Oc1ccccc1-c1ccc2c(c1)CC(C)(C)C2NC(=O)O[C@@H]1CN2CCC1CC2` (stereo partly drawn) [Example 145, (S)-quinuclidin-3-yl (5-(2-isopropoxyphenyl)-2,2-dimethyl-2,3-dihydro-1H-inden-1-yl)carbamate], it took 23 nM to reach half-maximal inhibition (IC50).

In turn, `CC(C)(C)c1ccc(-c2ccc3c(c2)CC(C)(C)C3NC(=O)O[C@@H]2CN3CCC2CC3)cc1` (stereo partly drawn) [Example 146, (S)-quinuclidin-3-yl (5-(4-(tert-butyl)phenyl)-2,2-dimethyl-2,3-dihydro-1H-inden-1-yl)carbamate] gave a concentration for half-maximal inhibition (IC50) of 14.1 nM.

Consider `CCc1ccc(-c2ccc3c(c2)CC(C)(C)C3NC(=O)O[C@@H]2CN3CCC2CC3)cc1` (stereo partly drawn) [Example 147, (S)-quinuclidin-3-yl (5-(4-ethylphenyl)-2,2-dimethyl-2,3-dihydro-1H-inden-1-yl)carbamate], for which the half-maximal inhibitory concentration (IC50) worked out at 14 nM.

In turn, `CC1(C)Cc2cc(-c3ccc(N4CCOCC4)cc3)ccc2C1NC(=O)O[C@@H]1CN2CCC1CC2` (stereo partly drawn) [Example 148, (S)-quinuclidin-3-yl (2,2-dimethyl-5-(4-morpholinophenyl)-2,3-dihydro-1H-inden-1-yl)carbamate] returned an IC50 of 30 nM.

Compound `COCc1ccc(-c2ccc3c(c2)CC(C)(C)C3NC(=O)O[C@@H]2CN3CCC2CC3)cc1` (stereo partly drawn) [Example 149, (S)-quinuclidin-3-yl (5-(4-(methoxymethyl)phenyl)-2,2-dimethyl-2,3-dihydro-1H-inden-1-yl)carbamate] registered a concentration for half-maximal inhibition (IC50) of 27.6 nM.

For `CC1(C)Cc2cc(-c3ccc(OCC(F)F)cc3)ccc2C1NC(=O)O[C@@H]1CN2CCC1CC2` (stereo partly drawn) [Example 150, (S)-quinuclidin-3-yl (5-(4-(2,2-difluoroethoxy)phenyl)-2,2-dimethyl-2,3-dihydro-1H-inden-1-yl)carbamate], the midpoint of inhibition, the IC50, lay at 6.8 nM.

In turn, `Cc1cc(-c2ccc3c(c2)CC(C)(C)C3NC(=O)O[C@@H]2CN3CCC2CC3)ccc1N1CCOCC1` (stereo partly drawn) [Example 151, (S)-quinuclidin-3-yl (2,2-dimethyl-5-(3-methyl-4-morpholinophenyl)-2,3-dihydro-1H-inden-1-yl)carbamate] came in with an IC50 of 37.9 nM.

Turning to `CC1(C)Cc2cc(-c3ccc(N4CCOCC4)c(F)c3)ccc2C1NC(=O)O[C@@H]1CN2CCC1CC2` (stereo partly drawn) [Example 152, (S)-quinuclidin-3-yl (5-(3-fluoro-4-morpholinophenyl)-2,2-dimethyl-2,3-dihydro-1H-inden-1-yl)carbamate], the IC50 is 32.5 nM.

As for `CC1(C)Cc2cc(-c3ccc(N4CCOCC4)c(Cl)c3)ccc2C1NC(=O)O[C@@H]1CN2CCC1CC2` (stereo partly drawn) [Example 153, (S)-quinuclidin-3-yl (5-(3-chloro-4-morpholinophenyl)-2,2-dimethyl-2,3-dihydro-1H-inden-1-yl)carbamate], 41.4 nM corresponded to half-maximal inhibition (IC50).

`CC1(C)Cc2cc(-c3ccc4c(c3)OCCCO4)ccc2C1NC(=O)O[C@@H]1CN2CCC1CC2` (stereo partly drawn) [Example 154, (S)-quinuclidin-3-yl (5-(3,4-dihydro-2H-benzo[b][1,4]dioxepin-7-yl)-2,2-dimethyl-2,3-dihydro-1H-inden-1-yl)carbamate] registered an IC50 of 27.4 nM.

Take `CC1(C)Cc2cc(-c3cccc(C(F)F)c3)ccc2C1NC(=O)O[C@@H]1CN2CCC1CC2` (stereo partly drawn) [Example 155, (S)-quinuclidin-3-yl (5-(3-(difluoromethyl)phenyl)-2,2-dimethyl-2,3-dihydro-1H-inden-1-yl)carbamate]: the IC50 worked out at 8.4 nM.

Turning to `CC1(C)Cc2cc(-c3cccc4cccnc34)ccc2C1NC(=O)O[C@@H]1CN2CCC1CC2` (stereo partly drawn) [Example 156, (S)-quinuclidin-3-yl (2,2-dimethyl-5-(quinolin-8-yl)-2,3-dihydro-1H-inden-1-yl)carbamate], the midpoint of inhibition, the IC50, lay at 46.7 nM.

The compound `CC1(C)Cc2cc(-c3coc4ccccc34)ccc2C1NC(=O)O[C@@H]1CN2CCC1CC2` (stereo partly drawn) [Example 157, (S)-quinuclidin-3-yl (5-(benzofuran-3-yl)-2,2-dimethyl-2,3-dihydro-1H-inden-1-yl)carbamate] returned an IC50 of 2.8 nM.

As to `CC1(C)Cc2cc(-c3cc4ccccc4o3)ccc2C1NC(=O)O[C@@H]1CN2CCC1CC2` (stereo partly drawn) [Example 158, (S)-quinuclidin-3-yl (5-(benzofuran-2-yl)-2,2-dimethyl-2,3-dihydro-1H-inden-1-yl)carbamate], the midpoint of inhibition, the IC50, lay at 17.1 nM.

`COc1ccc(-c2ccc3c(c2)CC(C)(C)C3NC(=O)O[C@@H]2CN3CCC2CC3)cc1` (stereo partly drawn) [Example 159, (S)-quinuclidin-3-yl (5-(4-methoxyphenyl)-2,2-dimethyl-2,3-dihydro-1H-inden-1-yl)carbamate] displayed a half-inhibitory concentration (IC50) of 12.7 nM.

With `CCOc1ccc(-c2ccc3c(c2)CC(C)(C)C3NC(=O)O[C@@H]2CN3CCC2CC3)cc1` (stereo partly drawn) [Example 160, (S)-quinuclidin-3-yl (5-(4-ethoxyphenyl)-2,2-dimethyl-2,3-dihydro-1H-inden-1-yl)carbamate], half-maximal inhibition (IC50) required 22.7 nM.

Take `CC(C)Cc1ccc(-c2ccc3c(c2)CC(C)(C)C3NC(=O)O[C@@H]2CN3CCC2CC3)cc1` (stereo partly drawn) [Example 161, (S)-quinuclidin-3-yl (5-(4-isobutylphenyl)-2,2-dimethyl-2,3-dihydro-1H-inden-1-yl)carbamate]: the IC50 worked out at 10.8 nM.

Compound `COc1c(Cl)ccc(-c2ccc3c(c2)CC(C)(C)C3NC(=O)O[C@@H]2CN3CCC2CC3)c1Cl` (stereo partly drawn) [Example 162, (S)-quinuclidin-3-yl (5-(2,4-dichloro-3-methoxyphenyl)-2,2-dimethyl-2,3-dihydro-1H-inden-1-yl)carbamate] registered an IC50 of 38.8 nM.

The compound `CCCc1ccc(-c2ccc3c(c2)CC(C)(C)C3NC(=O)O[C@@H]2CN3CCC2CC3)cc1` (stereo partly drawn) [Example 163, (S)-quinuclidin-3-yl (2,2-dimethyl-5-(4-propylphenyl)-2,3-dihydro-1H-inden-1-yl)carbamate] came in with a half-maximal inhibitory concentration (IC50) of 12.2 nM.

The experiment is the same for the next values; noted with them: read-out: IC50.
Take `CC1(C)Cc2cc(-c3cnc4ccccc4c3)ccc2C1NC(=O)O[C@@H]1CN2CCC1CC2` (stereo partly drawn) [Example 143, (S)-quinuclidin-3-yl (2,2-dimethyl-5-(quinolin-3-yl)-2,3-dihydro-1H-inden-1-yl)carbamate]: the IC50 amounted to 25.2 nM.
